Experimental data taken from patent US8716281B2, “Pyrimidine compounds that inhibit anaplastic lymphoma kinase” (Amgen Inc., priority 2010, dated 2014).

Target: T1, wild-type human ALK cytoplasmic domain (amino acids 1058-1620) (Homo sapiens, UniProt Q9UM73)
T1 construct: The cytoplasmic domain (amino acids 1058-1620) of wild-type human ALK; GST (N); made in house; host or cells: SF9 insect cells
Test: ALK Inhibition in Enzyme Assay (Lance TR-FRET)
Format: biochemical
Conditions: 2 nM enzyme, ATP at 40 μM (Km apparent), 90 minutes, mean of three replicates; read-out: ALK IC50
Summary of the method: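 Purified enzyme phosphorylated a biotinylated peptide substrate for 90 minutes at room temperature. Reactions were stopped with 20 mM EDTA in 50 mM Tris (pH 7.5), 100 mM NaCl, 0.05% BSA, 0.1% Tween-20. Phosphopeptide was detected by TR-FRET with SA-APC and Eu-W1024 anti-phosphotyrosine antibody PT66, excitation 320 nm.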

T1 sequence (Q9UM73 1058-1620): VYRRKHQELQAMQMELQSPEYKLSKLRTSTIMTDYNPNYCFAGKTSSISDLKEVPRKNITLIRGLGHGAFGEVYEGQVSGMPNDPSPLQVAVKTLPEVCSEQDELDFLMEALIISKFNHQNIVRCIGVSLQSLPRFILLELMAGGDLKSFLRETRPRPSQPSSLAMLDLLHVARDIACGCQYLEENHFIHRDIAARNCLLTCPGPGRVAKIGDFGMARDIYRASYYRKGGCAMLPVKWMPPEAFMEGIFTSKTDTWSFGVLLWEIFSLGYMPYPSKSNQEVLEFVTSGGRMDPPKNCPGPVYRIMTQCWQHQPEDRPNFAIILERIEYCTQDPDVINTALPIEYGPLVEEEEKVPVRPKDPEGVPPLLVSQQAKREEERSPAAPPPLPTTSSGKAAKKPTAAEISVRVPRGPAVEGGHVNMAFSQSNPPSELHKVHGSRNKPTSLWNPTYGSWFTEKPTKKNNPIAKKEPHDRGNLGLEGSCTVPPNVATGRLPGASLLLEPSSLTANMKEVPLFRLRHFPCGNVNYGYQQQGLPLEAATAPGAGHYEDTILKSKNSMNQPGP

Structure (SMILES)	IC50 [µM]
Cc1ccc(CNC(=O)[C@H]2CCCN(c3ccnc(Nc4cccc5c4CNC5=O)n3)C2)cc1 [Example 141, (3S)-N-(4-methylbenzyl)-1-(2-((1-oxo-2,3-dihydro-1H-isoindol-4-yl)amino)-4-pyrimidinyl)-3-piperidinecarboxamide]	0.1 to 1
CC(=O)N1CC(C)(C)c2ccc(Nc3nccc(N4CCC[C@H](C(=O)NCc5ccc(C)cc5)C4)n3)cc21 [Example 142, (3S)-1-(2-((1-acetyl-3,3-dimethyl-2,3-dihydro-1H-indol-6-yl)amino)-4-pyrimidinyl)-N-(4-methylbenzyl)-3-piperidinecarboxamide]	1 to 5
Cc1ccc(CNC(=O)[C@H]2CCCN(c3ccnc(Nc4cccc(Cn5nccn5)c4)n3)C2)cc1 [Example 143, (3S)-N-(4-methylbenzyl)-1-(2-((3-(2H-1,2,3-triazol-2-ylmethyl)phenyl)amino)-4-pyrimidinyl)-3-piperidinecarboxamide]	0.1 to 1
Cc1ccc(CNC(=O)[C@H]2CCCN(c3ccnc(Nc4cc(C5CCN(C(=O)OC(C)(C)C)CC5)[nH]n4)n3)C2)cc1 [Example 144, tert-butyl 4-(3-((4-((3S)-3-((4-methylbenzyl)carbamoyl)-1-piperidinyl)-2-pyrimidinyl)amino)-1H-pyrazol-5-yl)-1-piperidinecarboxylate]	1 to 5
Cc1ccc(CNC(=O)[C@H]2CCCN(c3ccnc(Nc4cc(-c5ccc(C)cc5)[nH]n4)n3)C2)cc1 [Example 145, (3S)-N-(4-methylbenzyl)-1-(2-((5-(4-methylphenyl)-1H-pyrazol-3-yl)amino)-4-pyrimidinyl)-3-piperidinecarboxamide]	5 to 10
COc1cc(Nc2nccc(N3CCC[C@H](C(=O)NCc4ccc(C)cc4)C3)n2)cc2c1OCCO2 [Example 146, (3S)-1-(2-((8-methoxy-2,3-dihydro-1,4-benzodioxin-6-yl)amino)-4-pyrimidinyl)-N-(4-methylbenzyl)-3-piperidinecarboxamide]	0.1 to 1
Cc1ccc(CNC(=O)[C@H]2CCCN(c3ccnc(Nc4ccc(=O)n(C)c4)n3)C2)cc1 [Example 147, (3S)-N-(4-methylbenzyl)-1-(2-((1-methyl-6-oxo-1,6-dihydro-3-pyridinyl)amino)-4-pyrimidinyl)-3-piperidinecarboxamide]	5 to 10
CCOc1cccc(Nc2nccc(N3CCC[C@H](C(=O)NCc4ccc(C)cc4)C3)n2)c1 [Example 148, (3S)-1-(2-((3-ethoxyphenyl)amino)-4-pyrimidinyl)-N-(4-methylbenzyl)-3-piperidinecarboxamide]	0.1 to 1
Cc1ccc(CNC(=O)[C@H]2CCCN(c3ccnc(Nc4cccc(Oc5ccccc5)c4)n3)C2)cc1 [Example 149, (3S)-N-(4-methylbenzyl)-1-(2-((3-phenoxyphenyl)amino)-4-pyrimidinyl)-3-piperidinecarboxamide]	0.1 to 1
Cc1ccc(CNC(=O)[C@H]2CCCN(c3ccnc(Nc4cccc(C(=O)c5ccccc5)c4)n3)C2)cc1 [Example 150, (3S)-N-(4-methylbenzyl)-1-(2-((3-(phenylcarbonyl)phenyl)amino)-4-pyrimidinyl)-3-piperidinecarboxamide]	0.1 to 1
Cc1ccc(CNC(=O)[C@H]2CCCN(c3ccnc(Nc4cccc(S(N)(=O)=O)c4)n3)C2)cc1 [Example 151, (3S)-N-(4-methylbenzyl)-1-(2-((3-sulfamoylphenyl)amino)-4-pyrimidinyl)-3-piperidinecarboxamide]	0.1 to 1
Cc1ccc(CNC(=O)[C@H]2CCCN(c3ccnc(Nc4cccc(Cc5ccccc5)c4)n3)C2)cc1 [Example 152, (3S)-1-(2-((3-benzylphenyl)amino)-4-pyrimidinyl)-N-(4-methylbenzyl)-3-piperidinecarboxamide]	0.1 to 1
Cc1ccc(CNC(=O)[C@H]2CCCN(c3ccnc(Nc4cc(C(C)(C)C)cc(C(C)(C)C)c4)n3)C2)cc1 [Example 153, (3S)-1-(2-((3,5-di-tert-butylphenyl)amino)-4-pyrimidinyl)-N-(4-methylbenzyl)-3-piperidinecarboxamide]	1 to 5
Cc1ccc(CNC(=O)[C@H]2CCCN(c3ccnc(Nc4ccc(C(=O)N(C)C)cc4)n3)C2)cc1 [Example 154, (3S)-1-(2-((4-(dimethylcarbamoyl)phenyl)amino)-4-pyrimidinyl)-N-(4-methylbenzyl)-3-piperidinecarboxamide]	1 to 5
Cc1ccc(CNC(=O)[C@H]2CCCN(c3ccnc(Nc4cc(C)cc(C)c4)n3)C2)cc1 [Example 155, (3S)-1-(2-((3,5-dimethylphenyl)amino)-4-pyrimidinyl)-N-(4-methylbenzyl)-3-piperidinecarboxamide]	1 to 5
CSc1cccc(Nc2nccc(N3CCC[C@H](C(=O)NCc4ccc(C)cc4)C3)n2)c1 [Example 157, (3S)-N-(4-methylbenzyl)-1-(2-((3-(methylsulfanyl)phenyl)amino)-4-pyrimidinyl)-3-piperidinecarboxamide]	0.1 to 1
Cc1ccc(CNC(=O)[C@H]2CCCN(c3ccnc(Nc4cccc(C)c4)n3)C2)cc1 [Example 158, (3S)-N-(4-methylbenzyl)-1-(2-((3-methylphenyl)amino)-4-pyrimidinyl)-3-piperidinecarboxamide]	0.1 to 1

Structure (SMILES)	IC50 [µM]
Cc1ccc(CNC(=O)[C@H]2CCCN(c3ccnc(Nc4cc(F)cc(F)c4)n3)C2)cc1 [Example 159, (3S)-1-(2-((3,5-difluorophenyl)amino)-4-pyrimidinyl)-N-(4-methylbenzyl)-3-piperidinecarboxamide]	1 to 5
Cc1ccc(CNC(=O)[C@H]2CCCN(c3ccnc(Nc4cccc(OC(C)C)c4)n3)C2)cc1 [Example 160, (3S)-N-(4-methylbenzyl)-1-(2-((3-(1-methylethoxy)phenyl)amino)-4-pyrimidinyl)-3-piperidinecarboxamide]	0.1 to 1
Cc1ccc(CNC(=O)[C@H]2CCCN(c3ccnc(Nc4ccc(N5CCN(C)CC5)cc4)n3)C2)cc1 [Example 161, (3S)-N-(4-methylbenzyl)-1-(2-((4-(4-methyl-1-piperazinyl)phenyl)ami-no)-4-pyrimidinyl)-3-piperidinecarboxamide]	0.1 to 1
Cc1ccc(CNC(=O)[C@H]2CCCN(c3ccnc(Nc4cc(C(F)(F)F)cc(C(F)(F)F)c4)n3)C2)cc1 [Example 163, (3S)-1-(2-((3,5-bis(trifluoromethyl)phenyl)amino)-4-pyrimidinyl)-N-(4-methylbenzyl)-3-piperidinecarboxamide]	0.1 to 1
Cc1ccc(CNC(=O)[C@H]2CCCN(c3ccnc(Nc4cccc(OC(F)(F)F)c4)n3)C2)cc1 [Example 164, (3S)-N-(4-methylbenzyl)-1-(2-((3-(trifluoromethoxy)phenyl)amino)-4-pyrimidinyl)-3-piperidinecarboxamide]	1 to 5
CC(=O)Nc1ccc(Nc2nccc(N3CCC[C@H](C(=O)NCc4ccc(C)cc4)C3)n2)cc1 [Example 165, (3S)-1-(2-((4-(acetylamino)phenyl)amino)-4-pyrimidinyl)-N-(4-methylbenzyl)-3-piperidinecarboxamide]	1 to 5
Cc1ccc(CNC(=O)[C@H]2CCCN(c3ccnc(Nc4ccc(C#N)cc4)n3)C2)cc1 [Example 166, (3S)-1-(2-((4-cyanophenyl)amino)-4-pyrimidinyl)-N-(4-methylbenzyl)-3-piperidinecarboxamide]	1 to 5
Cc1ccc(CNC(=O)[C@H]2CCCN(c3ccnc(Nc4cccc(C(C)O)c4)n3)C2)cc1 (stereo partly drawn) [Example 167, (3S)-1-(2-((3-(1-hydroxyethyl)phenyl)amino)-4-pyrimidinyl)-N-(4-methylbenzyl)-3-piperidinecarboxamide]	0.1 to 1
CNC(=O)c1cccc(Nc2nccc(N3CCC[C@H](C(=O)NCc4ccc(C)cc4)C3)n2)c1 [Example 168, (3S)-N-(4-methylbenzyl)-1-(2-((3-(methylcarbamoyl)phenyl)amino)-4-pyrimidinyl)-3-piperidinecarboxamide]	1 to 5
COc1cc(F)cc(Nc2nccc(N3CCC[C@H](C(=O)NCc4ccc(C)cc4)C3)n2)c1 [Example 169, (3S)-1-(2-((3-fluoro-5-methoxyphenyl)amino)-4-pyrimidinyl)-N-(4-methylbenzyl)-3-piperidinecarboxamide]	0.1 to 1
COc1cc(Nc2nccc(N3CCC[C@H](C(=O)NCc4ccc(C)cc4)C3)n2)cc(C(F)(F)F)c1 [Example 170, (3S)-1-(2-((3-methoxy-5-(trifluoromethyl)phenyl)amino)-4-pyrimidinyl)-N-(4-methylbenzyl)-3-piperidinecarboxamide]	0.1 to 1
Cc1ccc(CNC(=O)[C@H]2CCCN(c3ccnc(Nc4cccc(C(C)C)c4)n3)C2)cc1 [Example 171, (3S)-N-(4-methylbenzyl)-1-(2-((3-(1-methylethyl)phenyl)amino)-4-pyrimidinyl)-3-piperidinecarboxamide]	0.1 to 1
Cc1ccc(CNC(=O)[C@H]2CCCN(c3ccnc(Nc4ccc(C(C)C)cc4)n3)C2)cc1 [Example 172, (3S)-N-(4-methylbenzyl)-1-(2-((4-(1-methylethyl)phenyl)amino)-4-pyrimidinyl)-3-piperidinecarboxamide]	1 to 5
Cc1ccc(CNC(=O)[C@H]2CCCN(c3ccnc(Nc4ccc(C(N)=O)cc4)n3)C2)cc1 [Example 173, (3S)-1-(2-((4-carbamoylphenyl)amino)-4-pyrimidinyl)-N-(4-methylbenzyl)-3-piperidinecarboxamide]	1 to 5
Cc1ccc(CNC(=O)[C@H]2CCCN(c3ccnc(Nc4cc(Cl)cc(Cl)c4)n3)C2)cc1 [Example 174, (3S)-1-(2-((3,5-dichlorophenyl)amino)-4-pyrimidinyl)-N-(4-methylbenzyl)-3-piperidinecarboxamide]	1 to 5
Cc1ccc(CNC(=O)[C@H]2CCCN(c3ccnc(Nc4cccc(OCc5ccccc5)c4)n3)C2)cc1 [Example 175, (3S)-1-(2-((3-(benzyloxy)phenyl)amino)-4-pyrimidinyl)-N-(4-methylbenzyl)-3-piperidinecarboxamide]	1 to 5
